The values that follow are results of earlier work, collected in patent US20090082370A1, “Pharmaceutical Combinations of PK Inhibitors and Other Active Agents” (priority 2006, published 2009).

By half-life is commonly meant the time in which the quantity being followed falls by half. By IC50 is commonly meant the concentration needed to halve the response being measured.

The subject of data set [1] is Acute Promyelocytic Leukemia (APL).
For data set [2] the following is noted: doses 10 times more than were needed for antitumour activity.
For data set [3], the system named is phospho-AKT in breast cancer cells. To be noted: both in vitro and in vivo.
The conditions of data set [4]: antitumour agent.
For data set [5] the following is noted: in vivo.
A further data set has as its target PKB (Homo sapiens, UniProt P31749). To be noted: read-out: IC50 against PKB.
Another data set deals with PKA. To be noted: read-out: IC50 against PKA.
Another data set relates to PKG. To be noted: read-out: IC50 against PKG.
A further data set concerns PKC. To be noted: read-out: IC50 against PKC.
For the next data set, the system named is OVCAR-3 tumour cells. To be noted: at concentrations of 50 and 100 microM.

PKB, sequence (P31749 whole entry, species assumed): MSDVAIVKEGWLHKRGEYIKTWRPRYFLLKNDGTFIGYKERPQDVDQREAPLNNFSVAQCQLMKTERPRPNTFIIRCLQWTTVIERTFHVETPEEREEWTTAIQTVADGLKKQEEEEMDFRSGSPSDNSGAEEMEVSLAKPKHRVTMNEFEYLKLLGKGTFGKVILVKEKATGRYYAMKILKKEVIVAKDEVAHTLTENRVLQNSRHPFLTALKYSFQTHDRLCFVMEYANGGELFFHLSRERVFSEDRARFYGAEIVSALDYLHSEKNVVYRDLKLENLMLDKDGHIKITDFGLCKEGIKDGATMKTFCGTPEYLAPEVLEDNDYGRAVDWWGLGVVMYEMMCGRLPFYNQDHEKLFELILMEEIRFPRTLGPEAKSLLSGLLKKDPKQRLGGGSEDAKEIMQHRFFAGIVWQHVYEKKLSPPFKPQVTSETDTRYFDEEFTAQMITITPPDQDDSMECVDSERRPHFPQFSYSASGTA

Take `CC1=C(/C=C/C(C)=C/C=C/C(C)=C/C(=O)O)C(C)(C)CCC1` [Tretinoin, all-trans retinoic acid]: the “remissions in APL patients” value in data set [1] is recorded as 64-100%.

As to `CCOC(=O)c1ccc2[nH]c3c(OC)c4[nH]c5ccc(C(=O)OCC)cc5c4cc3c2c1` [SR-13668], in [2], the “adverse effects in mice” value is “no adverse effects”. Moreover, the “inhibition of phospho-AKT” value in [3] is on record as “significantly inhibits”.

Regarding `CCN[C@H]1CO[C@@H](O[C@H]2[C@H](O[C@H]3C#C/C=C\C#C[C@]4(O)CC(=O)C(NC(=O)OC)=C3/C4=C\CSSSC)O[C@H](C)[C@@H](NO[C@H]3C[C@H](O)[C@H](SC(=O)c4c(C)c(I)c(O[C@@H]5O[C@@H](C)[C@H](O)[C@@H](OC)[C@H]5O)c(OC)c4OC)[C@@H](C)O3)[C@@H]2O)C[C@@H]1OC` [Calicheamicin], the “potency relative to adriamycin” value in data set [4] is on record as “over 1,000 times”.

In the case of `CCCCCCCCCCCCCCCCCCOP(=O)([O-])OC1CC[N+](C)(C)CC1` [KRX-0401], the half-life in data set [5] is about 100 h.

Take `O=S(=O)(NCCNCC=C(c1ccccc1)c1ccccc1)c1cccc2cnccc12` [NL-71-101]: the IC50 at PKB was 3.7 µM; in the data set on PKA, 9 µM; in the data set with PKG, 36 µM; in the data set on PKC, 104 µM. Moreover, the “apoptosis in OVCAR-3 tumour cells, in which PKB is amplified” value with OVCAR-3 tumour cells is on record as “induced apoptosis”.
